Test system: neutrophil elastase release
Assay: assay for neutrophil elastase release (titration)
Type: cell-based
Settings: compared with conventionally synthesized molecule and native sequence IL-8
Description: Application of the native chemical ligation method to the total synthesis of a protein molecule was illustrated by the preparation of human interleukin 8 (IL-8). (M. Baggiolini, et al., FEBS Lett. (1989): vol. 307, p 97; I. Clark-Lewis, et al., J. Biol. Chem. (1994): vol. 269, p 16075 (1994); I. Clark-Lewis, Biochemistry (1991): vol. 30, p 3128; and K. Rajarathnam, et al., (1994): Biochemistry, (1994): vol. 29, p 1689.) The 72 amino acid polypeptide chain contains four Cys residues, which form two functionally critical disulfide bridges in the native protein molecule. The two unprotected synthetic peptide segments reacted cleanly to give the full length polypeptide chain in reduced form without further chemical manipulation (9). This successful ligation was particularly significant because the 33- and 39-residue IL-8 segments each contained two Cys residues, and together encompassed 18 of the 20 genetically encoded amino acids found in proteins. The purified product was folded and oxidized as previously described, to give IL-8 with a mass precisely 4 daltons less than that of the original ligation product, indicating the formation of two disulfide bonds. The properties of this folded product were identical to those of previously studied authentic IL-8 samples.

| Substance | maximal response in neutrophil elastase release |
| --- | --- |
| [Ala33]IL-8: 72 amino acid human interleukin 8 analogue made by native chemical ligation of IL-8(1-33)αCOSBn and IL-8(34-72), then folded by air oxidation | indistinguishable and identical to native sequence IL-8 |
| corresponding molecule obtained by conventional synthesis: [Ala33]IL-8 obtained by conventional synthesis, used as comparator | indistinguishable and identical to native sequence IL-8 |

Source: US7408026B1, “Synthesis of proteins by native chemical ligation” (The Scripps Research Institute, priority 1998, dated 2008)
